The values that follow come from patent publication US7270966B2, “Human pyrimidine receptor” (Euroscreen SA, priority 1995, dated 2007).

Where two headings read alike, the source gives them in different places. Some results are limits rather than exact numbers.

Test [1] deals with T1, human P2Y4 receptor (Homo sapiens, UniProt P51582).
T1 construct: expressed in transfected cells; host or cells: 1321N1 human astrocytoma cells, G418-selected clone, pcDNA3-P2Y4
Kind of test: InsP3 accumulation in 1321N1 cells expressing the human P2Y4 receptor. In kind it is cell-based. To be noted: for agonist effect on InsP3 at 30 s: 30 s incubation, 100 μM; for effect per se on InsP3 production: agonist alone; for functional response (IP3 accumulation) in pool of G418-resistant clones: pool of transfected 1321N1 clones. As to the method: Cells were transfected with the recombinant pcDNA3 plasmid (pcDNA3-P2Y4) using the calcium phosphate precipitation method as described (16). 1321N1 cells were incubated for 6 hours at 37° C. in the presence of pcDNA3 vector alone or vector containing the P2Y4 receptor coding sequence, then washed and incubated in culture medium (10% FCS, 100 U/ml penicillin, 100 μ/ml streptomycin and 2.5 μg/ml amphotericin B in Dulbecco's modified Eagle's medium (DMEM)). The selection with G418 (400 μg/ml) was started two days after transfection. From the pool of transfected 1321N1 cells, individual clones were isolated by limiting dilution with the aim of selecting clones with high IP stimulation factors in response to nucleotides. The different clones were maintained in a medium containing 400 μg/ml G418.
(§1) 1321N1 cells were labeled for 24 hours with 10 μCi/ml [^3H] inositol in inositol-free DMEM (Dulbecco's modified Eagle's medium) medium containing 5% fetal calf serum, 100 U/ml penicillin, 100 μg/ml streptomycin, 2.5 μg/ml amphotericin B and 400 μg/ml G418. Cells were washed twice with KRH (Krebs-Ringer Hepes) buffer of the following composition: (124 mM NaCl, 5 mM KCl, 1.25 mM MgSC4, 1.45 mM CaCl2, 25 mM Hepes (pH 7.4) and 8 mM glucose) and incubated in this medium for 30 min The agonists were added in the presence of LiCl (10 mM) and the incubation was stopped after 30 s, 5 min or 20 min by the addition of an ice-cold 3% perchloric acid solution. For the time course study, LiCl (10 mM) was added 5 min before the agonists and the incubation was stopped at different times. When tested, pertussis toxin (20 ng/ml) was added for 18 h during the labeling period time and during the stimulation by the agonist. Inositol phosphates were extracted and InsP3 was isolated by chromatography on Dowex column as described previously (17).

Test [2] has as its system muscarinic receptors endogenously expressed in the 1321N1 cells. The experiment in a line: Action of carbachol (InsP3) via muscarinic receptors endogenously expressed in 1321N1 cells. It is filed as cell-based, human. To be noted: cells transfected with P2Y4-pcDNA3 or vector alone. As to the method:
as §1
The maximal effect of ATP observed after a 20 min incubation represented about 27±9% of that of UTP (mean±S.D. of ten experiments). […] The ATP concentration-inhibition curves were shifted to the right when the UTP concentration was increased, indicating the competitive nature of this inhibitory effect (panels A and B). On the other hand, at lower concentrations (30-300 μM), ATP enhanced the response to UTP by 29% (range 12-47%, mean of four experiments) (panel B). […] This observation was reproduced with cells transfected with the recombinant P2Y4-pcDNA3 plasmid or with the vector alone and was also obtained with AMP and adenosine (data not shown).

In test [3] the target is T1, human P2Y4 receptor. The experiment in a line: Radioligand binding of [α32P]UTP to membranes of P2Y4-transfected 1321N1 clones. To be noted: clones 2, 11 and 21; 0.5 nM radioligand; data not shown. As to the method:
Binding assays of [α^32P] UTP to cell membranes were carried out in Tris-HCl (50 mM, pH 7.5), EDTA 1 mM in a final volume of 0.5 ml, containing 25-50 μg of protein and 0.5 nM of radioligand (27). The assays were conducted at 30° C. for 5 min. Incubations were stopped by the addition of 4 ml of ice-cold Tris-HCl (50 mM, pH 7.5) and rapid filtration through Whatman GF/B filters under reduced pressure. The filters were then washed three times with 2 ml of the same ice-cold Tris-HCl buffer. Radioactivity was quantified by liquid scintillation counting, after an overnight incubation of the filters in liquid scintillation mixture.

Where [4] appears, read: 20 min incubation, 10 mM LiCl, read-out: EC50 InsP3 accumulation, full concentration-action curves.
Where [5] appears, read: antagonist 100 μM, UTP 2 and 10 μM, 20 min.
The mark [6] stands for this setting: clone 2, 20 min incubation, 10 mM LiCl, read-out: EC50 InsP3 production.
Setting [7] is: clone 11, 20 min incubation, 10 mM LiCl, read-out: EC50 InsP3 production.
[8] abbreviates: clone 21, 20 min incubation, 10 mM LiCl, read-out: EC50 InsP3 production.

T1 sequence (P51582 whole entry): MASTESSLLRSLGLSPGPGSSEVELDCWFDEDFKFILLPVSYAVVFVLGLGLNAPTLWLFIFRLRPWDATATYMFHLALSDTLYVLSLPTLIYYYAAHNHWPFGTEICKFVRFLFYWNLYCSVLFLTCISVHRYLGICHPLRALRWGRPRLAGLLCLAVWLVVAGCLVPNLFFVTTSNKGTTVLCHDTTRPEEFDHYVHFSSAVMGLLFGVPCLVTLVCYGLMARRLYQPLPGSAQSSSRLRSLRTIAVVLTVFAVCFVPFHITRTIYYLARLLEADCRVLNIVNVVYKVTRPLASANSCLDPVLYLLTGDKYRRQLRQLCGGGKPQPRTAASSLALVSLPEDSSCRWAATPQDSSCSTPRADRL

For `O=c1[nH]c(=O)n([C@@H]2O[C@H](COP(=O)(O)OP(=O)(O)OP(=O)(O)O)[C@@H](O)[C@H]2O)cc1Br` [5BrUTP], the “agonist effect on InsP3 at 30 s” value on human P2Y4 receptor [1] is on record as “barely or not active”. Also, the EC50 at human P2Y4 receptor [1] (setting [4]) is 27.1 ± 1.9 µM.
As to `Nc1ncnc2c1ncn2[C@@H]1O[C@H](COP(=O)(O)OP(=O)(O)O)[C@@H](O)[C@H]1O` [ADP], in test [2], the “effect on the action of carbachol” value is given as “increased”. In addition, the “inhibition of the action of UTP (qualitative)” value at human P2Y4 receptor [1] is “did not inhibit”. The “stimulation by UTP in presence of ADP, relative to UTP alone” value at human P2Y4 receptor [1] (ADP 100 μM, UTP 10 μM) is on record as 158±15%. The “effect per se on InsP3 production” value at human P2Y4 receptor [1] (data not shown) is recorded as “almost no effect”.
For `Nc1ncnc2c1ncn2[C@@H]1O[C@H](COP(=O)(O)O)[C@@H](O)[C@H]1O` [AMP], the “effect on the action of carbachol” value in test [2] is recorded as “increased”. On human P2Y4 receptor [1] (data not shown), the “effect per se on InsP3 production” value is “without any effect”.
On to `Nc1ncnc2c1ncn2[C@@H]1O[C@H](COP(=O)(O)OP(=O)(O)OP(=O)(O)O)[C@@H](O)[C@H]1O` [ATP], for which, in test [2], the “effect on the action of carbachol” value is “increased”. In addition, on human P2Y4 receptor [1], the “agonist effect on InsP3 at 30 s” value is reported as “no effect” and the “functional response (IP3 accumulation) in pool of G418-resistant clones” value is on record as “agonists”. Further, the EC50 at human P2Y4 receptor [1] (setting [4]) is approximately 43 µM. The “maximal effect relative to that of UTP” value on human P2Y4 receptor [1] (20 min incubation, % of UTP maximal effect) is “about 27±9%”. Moreover, at human P2Y4 receptor [1] (ATP 30-300 μM, 20 min), the “enhancement of the response to UTP” value is 29%. In addition, on human P2Y4 receptor [1] (UTP 10 μM, ATP 2 mM, 30 s), the “antagonism of the response to UTP” value is “fully antagonized”. At human P2Y4 receptor [1] (UTP 10 μM, ATP 2 mM, 20 min), the “inhibition of the UTP effect” value worked out at 62±11%. Also, the “ATP concentration able to inhibit the effect of UTP” value on human P2Y4 receptor [1] (both at 30 s and 20 min) is not below 500 µM.
In the case of `Nc1ncnc2c1ncn2[C@@H]1O[C@H](COP(=O)(O)OP(=O)(O)OP(O)(O)=S)[C@@H](O)[C@H]1O` [ATPyS], the “effect per se on InsP3 production” value on human P2Y4 receptor [1] (data not shown) is “without any effect”.
Regarding `O=c1[nH]cnc2c1ncn2[C@@H]1O[C@H](COP(=O)(O)OP(=O)(O)OP(=O)(O)O)[C@@H](O)[C@H]1O` [ITP], the “agonist effect on InsP3 at 30 s” value at human P2Y4 receptor [1] is given as “barely or not active”. Further, the EC50 at human P2Y4 receptor [1] (setting [4]) was 32.8 ± 5.4 µM.
For orientation: IC50 means the point on the concentration scale where inhibition reaches its midpoint. `Cc1nc(N=Nc2ccc(S(=O)(=O)O)cc2S(=O)(=O)O)c(COP(=O)(O)O)c(C=O)c1O` [PPADS]: the “inhibition of the UTP response by antagonist” value (“inhibition … by antagonist” for short) against human P2Y4 receptor [1] (setting [5]) was determined as 73±14%. For the same compound, the half-inhibitory concentration (IC50) on human P2Y4 receptor [1] (data not shown, read-out: IC50 for inhibition of the UTP response) is approximately 15 µM.
`Nc1c(S(=O)(=O)O)cc(Nc2ccc(Nc3nc(Cl)nc(Nc4cccc(S(=O)(=O)O)c4)n3)c(S(=O)(=O)O)c2)c2c1C(=O)c1ccccc1C2=O` [RB-2, reactive blue 2]: on human P2Y4 receptor [1], the “inhibition … by antagonist” value is reported as 33±5%.
Turning to `O=c1ccn([C@@H]2O[C@H](COP(=O)(O)OP(=O)(O)O)[C@@H](O)[C@H]2O)c(=O)[nH]1` [UDP], the “agonist effect on InsP3 at 30 s” value on human P2Y4 receptor [1] is recorded as “barely or not active”. The EC50 at human P2Y4 receptor [1] (setting [4]) stood at 19.5 ± 3.9 µM; on human P2Y4 receptor [1] (setting [6]) it was 3.3 ± 0.6 µM; at human P2Y4 receptor [1] (setting [7]), 19.8 ± 4.8 µM; on human P2Y4 receptor [1] (setting [8]) it was 3.2 ± 0.8 µM.
For `O=c1ccn([C@@H]2O[C@H](COP(=O)(O)O)[C@@H](O)[C@H]2O)c(=O)[nH]1` [UMP], the “effect per se on InsP3 production” value on human P2Y4 receptor [1] (data not shown) was “without any effect”.
For the compound `O=c1ccn([C@@H]2O[C@H](COP(=O)(O)OP(=O)(O)OP(=O)(O)O)[C@@H](O)[C@H]2O)c(=O)[nH]1` [UTP, uridine triphosphate], the EC50 came out at 12.2 ± 4.5 µM on human P2Y4 receptor [1] (20 min, 100 μM PPADS, read-out: EC50 value for UTP in the presence of PPADS); 3.3 ± 0.6 µM at human P2Y4 receptor [1] (20 min, no PPADS, read-out: EC50 value for UTP in the absence of PPADS); 2.5 ± 0.6 µM at human P2Y4 receptor [1] (setting [4]); 0.3 ± 0.1 µM at human P2Y4 receptor [1] (setting [6]); 2.4 ± 0.1 µM at human P2Y4 receptor [1] (setting [7]); 0.3 ± 0.1 µM on human P2Y4 receptor [1] (setting [8]). Moreover, on human P2Y4 receptor [1] (clone 11, 20 min incubation), the “potency of UTP relative to UDP” value is recorded as 10 fold. The “functional response (IP3 accumulation) in pool of G418-resistant clones” value on human P2Y4 receptor [1] was “agonists”.
With `O=c1ccn(C2OC(CO[32P](=O)(O)OP(=O)(O)OP(=O)(O)O)C(O)C2O)c(=O)[nH]1` (stereo not drawn) [[α^32P] UTP], at human P2Y4 receptor [3], the “specific binding versus cells transfected with the vector alone” value was “no increase in specific binding”.
In the case of `Nc1ncnc2c1ncn2[C@@H]1O[C@H](CO)[C@@H](O)[C@H]1O` [adenosine], in test [2], the “effect on the action of carbachol” value is recorded as “increased”. Moreover, at human P2Y4 receptor [1] (data not shown), the “effect per se on InsP3 production” value is given as “without any effect”.
`O=c1ccn([C@H]2C[C@H](O)[C@@H](COP(=O)(O)OP(=O)(O)OP(=O)(O)O)O2)c(=O)[nH]1` [dUTP]: the “agonist effect on InsP3 at 30 s” value on human P2Y4 receptor [1] is listed as “barely or not active”. For the same compound, the EC50 at human P2Y4 receptor [1] (setting [4]) is 20 ± 2.3 µM.
With `Cc1ccc(C(=O)Nc2ccc(S(=O)(=O)O)c3cc(S(=O)(=O)O)cc(S(=O)(=O)O)c23)cc1NC(=O)c1cccc(NC(=O)Nc2cccc(C(=O)Nc3cc(C(=O)Nc4ccc(S(=O)(=O)O)c5cc(S(=O)(=O)O)cc(S(=O)(=O)O)c45)ccc3C)c2)c1` [suramin], the “inhibition … by antagonist” value against human P2Y4 receptor [1] (setting [5]) is “inactive”.
On to `O=c1ccn([C@@H]2O[C@H](CO)[C@@H](O)[C@H]2O)c(=O)[nH]1` [uridine], for which the “effect per se on InsP3 production” value on human P2Y4 receptor [1] (data not shown) is recorded as “without any effect”.
pertussis toxin: on human P2Y4 receptor [1] (20 ng/ml, 18 hours pretreatment, UTP 100 μM, 30 s), the “inhibition of the UTP response by pertussis toxin” value came out at 62±5%. In addition, the “effect of pertussis toxin on the UTP response” value on human P2Y4 receptor [1] (20 ng/ml, 18 hours pretreatment, UTP 100 μM, 5 min) was “no significant effect”; on human P2Y4 receptor [1] (20 ng/ml, 18 hours pretreatment, UTP 100 μM, 20 min) it was “no significant effect”.
